Target: TRPA1 (Homo sapiens, UniProt O75762)
Experiment: Synergy of cinnamaldehyde and zinc on pharmacological activity of TRPA1, in vitro
Text: The trigeminal ingredient may comprise cinnamaldehyde and zinc. The combination provides a minimal flavor impact and is effective to promote a swallowing reflex. Cinnamaldehyde and zinc have a synergy on the pharmacological activity of TRPA1. Using this synergy, the effective amount of cinnamaldehyde can be decreased by supplementing the cinnamaldehyde with small amount of zinc. Consequently, the combination of cinnamaldehyde and zinc can promote a swallowing reflex at concentrations in food that are tolerable both in flavor/taste and in the gastrointestinal tract. Moreover, the synergy only requires a low concentration of zinc (in vitro<1 μM).

Chain of TRPA1 (O75762 whole entry, species assumed): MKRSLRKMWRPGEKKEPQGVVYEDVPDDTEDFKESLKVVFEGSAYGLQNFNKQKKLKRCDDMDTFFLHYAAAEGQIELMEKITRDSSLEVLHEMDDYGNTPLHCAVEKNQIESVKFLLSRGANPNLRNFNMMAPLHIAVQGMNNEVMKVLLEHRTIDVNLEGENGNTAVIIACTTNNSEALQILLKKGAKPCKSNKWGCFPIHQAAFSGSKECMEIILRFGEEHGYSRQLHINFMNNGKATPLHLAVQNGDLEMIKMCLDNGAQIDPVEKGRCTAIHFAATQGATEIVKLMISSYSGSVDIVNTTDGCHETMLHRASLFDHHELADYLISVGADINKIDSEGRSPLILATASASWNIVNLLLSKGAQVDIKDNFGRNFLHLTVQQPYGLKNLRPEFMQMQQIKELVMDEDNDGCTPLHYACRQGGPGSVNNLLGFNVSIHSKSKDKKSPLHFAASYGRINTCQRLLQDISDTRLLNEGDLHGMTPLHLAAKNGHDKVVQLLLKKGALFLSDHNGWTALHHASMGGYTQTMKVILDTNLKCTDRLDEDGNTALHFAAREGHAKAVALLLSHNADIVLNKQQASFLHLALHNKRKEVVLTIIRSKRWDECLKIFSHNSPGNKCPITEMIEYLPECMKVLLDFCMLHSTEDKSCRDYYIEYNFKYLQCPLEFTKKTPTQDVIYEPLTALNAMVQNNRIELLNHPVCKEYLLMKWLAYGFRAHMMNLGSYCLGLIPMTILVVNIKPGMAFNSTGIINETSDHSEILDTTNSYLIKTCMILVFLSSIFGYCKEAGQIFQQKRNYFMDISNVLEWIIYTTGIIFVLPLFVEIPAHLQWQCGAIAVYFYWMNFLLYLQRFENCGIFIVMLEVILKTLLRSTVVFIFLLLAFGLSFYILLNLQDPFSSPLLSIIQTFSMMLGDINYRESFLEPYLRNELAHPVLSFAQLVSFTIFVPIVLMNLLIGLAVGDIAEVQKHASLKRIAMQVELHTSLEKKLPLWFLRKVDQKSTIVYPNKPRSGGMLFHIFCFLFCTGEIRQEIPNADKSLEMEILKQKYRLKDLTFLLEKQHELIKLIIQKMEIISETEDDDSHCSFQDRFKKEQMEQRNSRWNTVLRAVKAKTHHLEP

With `[Zn]` [zinc] the “zinc concentration required for synergy with cinnamaldehyde” value was under 1 µM.

— patent US20230270139A1, “COMPOSITIONS TO PROMOTE SWALLOWING SAFETY AND EFFICIENCY” (SOCIETE DES PRODUITS NESTLE S.A., priority 2020, published 2023)
